Earlier results, collected in patent US4968506A, “Pharmaceutical dosage with core of N-acetyl cystein” (Lejus Medical Aktienbolag, priority 1988, dated 1990).

System: mucous membrane in the stomach
Conditions: N-acetyl cysteine

Structure (SMILES): CC(=O)N[C@@H](CS)C(=O)O [N-Acetyl cysteine, N-acetyl cysteine]
- reported side effects: irritating effect on the mucous membrane in the stomach
